Assay results: US20260167615A1, “COMPOUNDS AND COMPOSITIONS AS GPR52 MODULATORS” (Neurocrine Biosciences, Inc., priority 2022, published 2026)
Read-outs that look alike come from different tables or passages of the source.

Molecular target: recombinant human GPR52 (Homo sapiens, UniProt Q9Y2T5)
Assay: HTRF cAMP assay, GPR52 activity (Example A)
Type: cell-based
Description: Compounds of Formula I were assessed for their ability to modulate GPR52 activity. HTRF CAMP assays were performed using a commercially available assay kit (CAMP Gs HiRange HTRF®, CisBio). Controls and compounds were solubilized in DMSO and 62.5 nanoliters of the diluted compounds were transferred into 384-well NBS assay plates via acoustic or precision low-volume dispensing. Compounds were further diluted to 1× with the addition of 20,000 cells per well. Flp-In™—CHO cells that stably express recombinant human GPR52 were used in the assay.
Cells were harvested with cell stripper and resuspended in stimulation buffer. After thirty minutes incubation at room temperature, detection reagents were added to each well. Plates were then incubated for an additional 30 minutes at room temperature. CAMP produced by the cells during the first incubation period competes with d2-labeled CAMP for binding to an anti-cAMP monoclonal antibody labeled with europium cryptate. The measured signal was inversely proportional to the concentration of cAMP produced by the cells and this signal was quantified using a PHERAstar® multi-mode plate reader.
Dose-response curves were generated from the HTRF counts that have been transformed based on a CAMP referenced curve, and then normalized to the positive control. EC50 values were obtained using a nonlinear regression curve-fitting program. […] The Emax (Table 13) is the maximum amount of cAMP (nM) produced by incubation of the cells with 10 μM or 31.6 μM of a test compound. The compound is defined by the top plateau of the sigmoid curve fit. The curve is then normalized to a control compound, in this case 4-(3-(3-fluoro-5-(trifluoromethyl)benzyl)-5-methyl-4,5-dihydro-1H-1,2,4-triazol-1-yl)-2-methylbenzamide (Tokumaru, K., et al., “Design, synthesis, and pharmacological evaluation of 4-azolyl-benzamide derivatives as novel GPR52 agonists”, Bioorganic & Medicinal Chemistry, Volume 25, Issue 12, June 2017, pages 3098-3115), and expressed as a percentage of the Emax of that control compound.

[1] = average EC50 (n=1 to 15), Flp-In-CHO cells stably expressing recombinant human GPR52, cAMP HTRF, read-out: EC50 (N=)
[2] = maximum cAMP at 10 μM or 31.6 μM test compound, as percentage of Emax of control compound 4-(3-(3-fluoro-5-(trifluoromethyl)benzyl)-5-methyl-4,5-dihydro-1H-1,2,4-triazol-1-yl)-2-methylbenzamide

recombinant human GPR52, sequence (Q9Y2T5 whole entry): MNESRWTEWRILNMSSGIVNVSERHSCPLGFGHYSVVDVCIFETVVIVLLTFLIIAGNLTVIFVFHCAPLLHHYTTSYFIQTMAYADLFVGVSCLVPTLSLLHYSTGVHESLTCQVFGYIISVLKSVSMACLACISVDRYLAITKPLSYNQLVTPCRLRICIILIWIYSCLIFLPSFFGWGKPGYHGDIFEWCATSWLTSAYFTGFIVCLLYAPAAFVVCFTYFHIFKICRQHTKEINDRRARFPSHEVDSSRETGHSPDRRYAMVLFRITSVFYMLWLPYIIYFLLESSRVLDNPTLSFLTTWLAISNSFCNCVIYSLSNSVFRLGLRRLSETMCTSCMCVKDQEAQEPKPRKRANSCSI

| Compound | EC50 [1] [nM] | Emax [2] [%] | EC50 (Flp-In-CHO cells expressing human GPR52, read-out: average EC50) [nM] | Emax (percentage of Emax of control compound) [%] |
| --- | --- | --- | --- | --- |
| Cc1cc(-c2cc(Oc3cnc4c(c3)C=C(F)CC4)ccn2)ccc1C(N)=O [Example 121, 4-(4-((6-fluoro-7,8-dihydroquinolin-3-yl)oxy)pyridin-2-yl)-2-methylbenzamide] | 1000 to 2000 | 78 | – | – |
| CCc1cc(-c2cc(Oc3cc(F)c4cnn(C)c4c3)cc(N)n2)ccc1C(N)=O [Example 20, 4-(6-amino-4-((4-fluoro-1-methyl-1H-indazol-6-yl)oxy)pyridin-2-yl)-2-ethylbenzamide] | 101 to 1000 | 111 | – | – |
| Cc1cc(-c2cc(Oc3ccc4ncn(C)c4c3)ccn2)ccc1C(N)=O [Example 8, 2-methyl-4-(4-((1-methyl-1H-benzo[d]imidazol-6-yl)oxy)pyridin-2-yl)benzamide] | 1000 to 2000 | 68 | – | – |
| Cc1cc(-c2cc(Oc3cnc4ccc(F)cc4c3)ccn2)ccc1C(N)=O [Example 105, 4-(4-((6-fluoroquinolin-3-yl)oxy)pyridin-2-yl)-2-methylbenzamide] | 101 to 1000 | 51 | – | – |
| CCc1cc(-c2cc(Oc3cnc4cc(F)ccc4c3)ccn2)ccc1C(N)=O [Example 101, 2-ethyl-4-(4-((7-fluoroquinolin-3-yl)oxy)pyridin-2-yl)benzamide] | 101 to 1000 | 80 | – | – |
| CCc1cc(-c2cc(Oc3ccc4c(C#N)nn(C)c4c3)ccn2)ccc1C(N)=O [Example 48, 4-(4-((3-cyano-1-methyl-1H-indazol-6-yl)oxy)pyridin-2-yl)-2-ethylbenzamide] | 101 to 1000 | 118 | – | – |
| CCc1cc(-c2cc(Oc3ccc4c(C(F)(F)F)nn(C)c4c3)ccn2)ccc1C(=O)NC [Example 64, 2-ethyl-N-methyl-4-(4-((1-methyl-3-(trifluoromethyl)-1H-indazol-6-yl)oxy)pyridin-2-yl)benzamide] | 101 to 1000 | 81 | – | – |
| CCc1cc(-c2cccc(Oc3cnc4c(C)nn(C)c4c3)c2)ccc1C(=O)NC [Example 66, 3′-((1,3-dimethyl-1H-pyrazolo[4,3-b]pyridin-6-yl)oxy)-3-ethyl-N-methyl-[1,1′-biphenyl]-4-carboxamide] | 101 to 1000 | 87 | – | – |
| CCc1cc(-c2cc(Oc3ccc4nccnc4c3)ccn2)ccc1C(N)=O [Example 125, 2-ethyl-4-(4-(quinoxalin-6-yloxy)pyridin-2-yl)benzamide] | 101 to 1000 | 90 | – | – |
| CCc1cc(-c2cc(Oc3cnc4cc(F)c(F)cc4c3)ccn2)ccc1C(N)=O [Example 113, 4-(4-((6,7-difluoroquinolin-3-yl)oxy)pyridin-2-yl)-2-ethylbenzamide] | 101 to 1000 | 95 | – | – |
| CCc1cc(-c2cc(Oc3ccc4c(c3)NCCO4)ccn2)ccc1C(N)=O [Example 68, 4-(4-((3,4-dihydro-2H-benzo[b][1,4]oxazin-6-yl)oxy)pyridin-2-yl)-2-ethylbenzamide] | < 25 | 131 | – | – |
| Cc1cc(-c2cncc(Oc3ccc4nn(C)cc4c3)n2)ccc1C(N)=O [Example 10, 2-methyl-4-(6-((2-methyl-2H-indazol-5-yl)oxy)pyrazin-2-yl)benzamide] | 101 to 1000 | 106 | – | – |
| CNc1cc(-c2cc(Oc3ccc4c(C)nn(C)c4c3)ccn2)ccc1C(N)=O [Example 35, 4-(4-((1,3-dimethyl-1H-indazol-6-yl)oxy)pyridin-2-yl)-2-(methylamino)benzamide] | 101 to 1000 | 85 | – | – |
| Cc1cc(-c2cc(Oc3ccc4c(c3)OCO4)ccn2)ccc1C(N)=O [Example 85, 4-(4-(benzo[d][1,3]dioxol-5-yloxy)pyridin-2-yl)-2-methylbenzamide] | 101 to 1000 | 106 | – | – |
| Cc1cc(-c2cc(Oc3ccc4ncncc4c3)ccn2)ccc1C(N)=O [Example 124, 2-methyl-4-(4-(quinazolin-6-yloxy)pyridin-2-yl)benzamide] | 1000 to 2000 | 100 | – | – |
| CCc1cc(-c2cc(Oc3ccc4c(c3)c(C)nn4C)ccn2)ccc1C(N)=O [Example 57, 4-(4-((1,3-dimethyl-1H-indazol-5-yl)oxy)pyridin-2-yl)-2-ethylbenzamide] | 25 to 100 | 104 | – | – |
| CCc1cc(-c2cc(Oc3cc(F)c4ncccc4c3)ccn2)ccc1C(N)=O [Example 97, 2-ethyl-4-(4-((8-fluoroquinolin-6-yl)oxy)pyridin-2-yl)benzamide] | 101 to 1000 | 132 | – | – |
| CCc1cc(-c2cc(Oc3cnc4c(c3)c(C(F)(F)F)nn4C)cc(N)n2)ccc1C(N)=O [Example 24, 4-(6-amino-4-((1-methyl-3-(trifluoromethyl)-1H-pyrazolo[3,4-b]pyridin-5-yl)oxy)pyridin-2-yl)-2-ethylbenzamide] | 101 to 1000 | 110 | – | – |
| CCc1cc(-c2cc(Oc3ccc4cnn(C)c4c3)ccn2)ccc1C(N)=O [Example 2, 2-ethyl-4-{4-[(1-methyl-1H-indazol-6-yl)oxy]pyridin-2-yl}benzamide] | 101 to 1000 | 98 | – | – |
| CCc1cc(-c2cc(Oc3cnc4c(C(F)(F)F)cccc4c3)ccn2)ccc1C(N)=O [Example 109, 2-ethyl-4-(4-((8-(trifluoromethyl)quinolin-3-yl)oxy)pyridin-2-yl)benzamide] | 101 to 1000 | 75 | – | – |
| Cc1cc(-c2cc(Oc3cc(Cl)c4ncccc4c3)ccn2)ccc1C(N)=O [Example 100, 4-(4-((8-chloroquinolin-6-yl)oxy)pyridin-2-yl)-2-methylbenzamide] | 101 to 1000 | 112 | – | – |
| Cc1cnc2ccc(Oc3ccnc(-c4ccc(C(N)=O)c(C)c4)c3)cc2c1 [Example 108, 2-methyl-4-(4-((3-methylquinolin-6-yl)oxy)pyridin-2-yl)benzamide] | 101 to 1000 | 150 | – | – |
| Cc1cc(-c2cc(Oc3cnc4c(c3)c(C)nn4C)ccn2)ccc1C(N)=O [Example 54, 4-(4-((1,3-dimethyl-1H-pyrazolo[3,4-b]pyridin-5-yl)oxy)pyridin-2-yl)-2-methylbenzamide] | 101 to 1000 | 110 | – | – |
| Cc1cc(-c2cc(Oc3cnc4c(c3)c(F)nn4C)ccn2)ccc1C(N)=O [Example 126, 4-(4-((3-fluoro-1-methyl-1H-pyrazolo[3,4-b]pyridin-5-yl)oxy)pyridin-2-yl)-2-methylbenzamide] | 101 to 1000 | 103 | – | – |
| CCc1cc(-c2cc(Oc3ccc4ccncc4c3)ccn2)ccc1C(N)=O [Example 73, 2-ethyl-4-(4-(162yridine162ine-7-yloxy)162yridine-2-yl)benzamide] | 101 to 1000 | 66 | – | – |
| CCc1cc(-c2cc(Oc3cnc4c(C)nn(C)c4c3)ccn2)ccc1C(N)=O [Example 1, 4-(4-((1,3-dimethyl-1H-pyrazolo[4,3-b]pyridin-6-yl)oxy)pyridin-2-yl)-2-ethylbenzamide] | 101 to 1000 | 106 | 270 | 106 |
| Cc1cc(-c2cc(Oc3ccc4cnn(C)c4c3)cc(CN)n2)ccc1C(N)=O [Example 94, 4-(6-(aminomethyl)-4-((1-methyl-1H-indazol-6-yl)oxy)pyridin-2-yl)-2-methylbenzamide] | 101 to 1000 | 129 | – | – |
| Cc1cc(-c2cc(Oc3ccc4c(N)nn(C)c4c3)ccn2)ccc1C(N)=O [Example 49, 4-(4-((3-amino-1-methyl-1H-indazol-6-yl)oxy)pyridin-2-yl)-2-methylbenzamide] | 101 to 1000 | 53 | – | – |
